Experimental data reported in US8349827B2, “Substituted dipyrido-pyrimido-diazepine and benzo-pyrido-pyrimido compounds” (ArQule, Inc., priority 2009, dated 2013).

Key:
MDA-MB-231 = test: MTS assay, MDA-MB-231 cells; format: cell-based; details: Homo sapiens, 72 hours
Procedure: (§1) Cells were maintained at 37° C., 5% CO2 in DMEM media supplemented with 1% fetal bovine serum, penicillin/streptomycin and fungizone (Invitrogen). Cells were seeded into 96-well tissue culture plates at 3000 per well and cultured at 37° C. for 18 hours. Test compounds were dissolved and diluted to 300× in DMSO then diluted 1:40 in DMEM. Cells were incubated with test compounds for 72 hours followed by incubation with tetrazolium compound (3-(4,5-dimethylthiazol-2-yl)-5-(3-carboxymethoxyphenyl)-2-(4-sulfophenyl)-2H-tetrazolium, inner salt; MTS) and the electron coupling reagent, phenazine methosulfate (PMS) for 4 hours. […] The ability of compounds to inhibit cell growth in this assay is correlated with the reduction of dehydrogenase enzyme activity found in metabolically active cells. The measurement of the absorbance of the formazan was assessed using an ENVISION™ (Perkin Elmer) microplate reader at 492 nm. The calculated IC50 value is the concentration of the test compound that causes a 50% decrease in the absorbance.

NCI-H1299 = test: MTS assay, NCI-H1299 cells; format: cell-based; details: Homo sapiens, 72 hours
Procedure: as §1

ABL = ABL (Homo sapiens, UniProt P00519); test: ABL Kinase Activity Assay (Elisa), ABL; format: biochemical; details: ATP 100 μM, read-out: Abl Enzymetic assay (Elisa) % inhibition
Procedure: (§2) ABL Kinase Activity Assay
(§3) The disclosed compounds were assayed for their ability to inhibit the activity of ABL kinase. Nunc Maxisorb plates were coated with streptavidin by overnight incubation with 100 μL per well of 1 μg/ml streptavidin in DPBS. Prior to the experiment, the plates were washed with TBST (3×200 μL) and blocked for at least 3 hours by adding 150 μL of 5% BSA/TBST. The plates were washed with TBST (3×200 μL/well) and left dry immediately before the capture step.
(§4) The disclosed test compounds and controls (Gleevec) were prepared using the following assay buffer@10× desired final concentration (50 mM Tris pH 7.0, 0.02 mg/ml BSA, 10 mM MgCl2, 0.1 mM Na3VO4, 1 mM EGTA, 0.01% NP-40, 1 mM DTT in 10% glycerol/water). In a reaction plate, 5 μl test article (or control) and 30 μl ABL or ABL T315I (0.089 nM final concentration, in the above buffer) were added rapidly. The plate was incubated for 20 minutes. To the reaction plate was added ATP (100 μM final concentration) and AblTide (128 nM final concentration) in a volume of 15 μl. The plate was incubated at room temperature for one hour.
(§5) From the reaction plate, 40 μl was transferred to the streptavidin coated plate. The capture plate was incubated at room temperature for 30 minutes, then washed 3× with TBST. To the capture plate was added 100 μL/well of cell signaling anti-phospho tyrosine at a dilution of 1:3000 in 2% BSA/TBST. The plate was incubated for two hours at room temperature then washed 3× with TBST. To the capture plate was added 100 μL/well of alkaline phosphatase tagged goat anti mouse antibody at a dilution of 1:4000 in 2% BSA/TBST. The plate was incubated for one hour at room temperature then washed 3× with TBST.
(§6) The fluorescent readout was initiated by the addition of 100 μl/well of Attophos reagent (6 mg/10 mL). The reading was done on the Perkin Elmer Envision system.

PACA-2 = test: MTS assay, PACA-2 cells; format: cell-based; details: 72 hours
Procedure: as §1

KATO III = test: MTS assay, KATO III cells; format: cell-based; details: Homo sapiens, 72 hours
Procedure: as §1

DLD-1 = test: MTS assay, DLD-1 cells; format: cell-based; details: Homo sapiens, 72 hours
Procedure: as §1

ABL T315I = ABL T315I (Homo sapiens, UniProt P00519, T315I); test: ABL Kinase Activity Assay (Elisa), ABL T315I; format: biochemical; details: ATP 100 μM, read-out: Abl(T315I) Enzymetic assay (Elisa) % inhibition
Procedure: as §2, §3, §4, §5, §6

PC-3 = test: MTS assay, PC-3 cells; format: cell-based; details: Homo sapiens, 72 hours
Procedure: as §1

SMILES | inhibition at 10 µM (MDA-MB-231) [%] | inhibition at 10 µM (NCI-H1299) [%] | inhibition at 10 µM (ABL) [%] | inhibition at 10 µM (PACA-2) [%] | inhibition at 10 µM (KATO III) [%] | inhibition at 10 µM (DLD-1) [%] | inhibition at 10 µM (ABL T315I) [%] | inhibition at 10 µM (PC-3) [%]
CCN(CC)CCCNc1ncc2c(n1)-c1cccnc1Nc1cnccc1-2 [Example 44, N′-9H-dipyrido[2,3-b:4′,3′-f]pyrimido[4,5-d]azepin-2-yl-N,N-diethylpropane-1,3-diamine] | < 50 | < 50 | < 50 | < 50 | 80 to 100 | < 50 |  | 
COc1cc(CNc2ncc3c(n2)-c2cccnc2Nc2cnccc2-3)cc(OC)c1 [Example 36, N-(3,5-dimethoxybenzyl)-9H-dipyrido[2,3-b:4′,3′-f]pyrimido[4,5-d]azepin-2-amine] |  | < 50 | 50 to 79 | < 50 | < 50 | < 50 | 80 to 100 | 
OCCc1cccc(Nc2ncc3c(n2)-c2cccnc2Nc2ccccc2-3)c1 [Example 67, 2-[3-(9H-pyrido[2,3-b]pyrimido[4,5-d][1]benzazepin-2-ylamino)phenyl]ethanol] | < 50 | 50 to 79 |  | 80 to 100 | 50 to 79 | < 50 |  | 
COc1cccc(CNc2ncc3c(n2)-c2cccnc2Nc2cnccc2-3)c1 [Example 32, N-(3-methoxybenzyl)-9H-dipyrido[2,3-b:4′,3′-f]pyrimido[4,5-d]azepin-2-amine] | < 50 | 50 to 79 | 80 to 100 | < 50 | < 50 | 50 to 79 | 80 to 100 | 
Cc1ccc(CCNc2ncc3c(n2)-c2cccnc2Nc2cnccc2-3)cc1 [Example 16, N-[2-(4-methylphenyl)ethyl]-9H-dipyrido[2,3-b:4′,3′-f]pyrimido[4,5-d]azepin-2-amine] | < 50 | < 50 | 80 to 100 | < 50 | 50 to 79 | < 50 | 80 to 100 | 
Clc1cccc(CCNc2ncc3c(n2)-c2cccnc2Nc2cnccc2-3)c1 [Example 29, N-[2-(3-chlorophenyl)ethyl]-9H-dipyrido[2,3-b:4′,3′-f]pyrimido[4,5-d]azepin-2-amine] | < 50 |  | 80 to 100 | < 50 | 80 to 100 | < 50 | 80 to 100 | 
c1ccc(CCNc2ncc3c(n2)-c2cccnc2Nc2cnccc2-3)cc1 [Example 28, N-(2-phenylethyl)-9H-dipyrido[2,3-b:4′,3′-f]pyrimido[4,5-d]azepin-2-amine] | < 50 |  | 80 to 100 |  | 50 to 79 | < 50 | 80 to 100 | 
Fc1ccc(CCNc2ncc3c(n2)-c2cccnc2Nc2cnccc2-3)cc1 [Example 19, N-[2-(4-fluorophenyl)ethyl]-9H-dipyrido[2,3-b:4′,3′-f]pyrimido[4,5-d]azepin-2-amine] | < 50 | < 50 | 80 to 100 |  | < 50 | < 50 | 80 to 100 | 
Clc1ccc(CCNc2ncc3c(n2)-c2cccnc2Nc2cnccc2-3)cc1 [Example 31, N-[2-(4-chlorophenyl)ethyl]-9H-dipyrido[2,3-b:4′,3′-f]pyrimido[4,5-d]azepin-2-amine] |  | < 50 | 80 to 100 | < 50 | 80 to 100 | 50 to 79 | 80 to 100 | 
Fc1ccccc1CCNc1ncc2c(n1)-c1cccnc1Nc1cnccc1-2 [Example 43, N-[2-(2-fluorophenyl)ethyl]-9H-dipyrido[2,3-b:4′,3′-f]pyrimido[4,5-d]azepin-2-amine] |  | < 50 | 80 to 100 | < 50 | 50 to 79 | < 50 | 80 to 100 | 
COc1ccc(CNc2ncc3c(n2)-c2cccnc2Nc2cnccc2-3)cc1OC [Example 47, N-(3,4-dimethoxybenzyl)-9H-dipyrido[2,3-b:4′,3′-f]pyrimido[4,5-d]azepin-2-amine] | < 50 | 50 to 79 | 80 to 100 | < 50 | < 50 | 50 to 79 | 80 to 100 | 
Fc1ccccc1CNc1ncc2c(n1)-c1cccnc1Nc1cnccc1-2 [Example 20, N-(2-fluorobenzyl)-9H-dipyrido[2,3-b:4′,3′-f]pyrimido[4,5-d]azepin-2-amine] | < 50 | < 50 | 80 to 100 | < 50 | < 50 | < 50 | 80 to 100 | 
Cc1cccc(CCNc2ncc3c(n2)-c2cccnc2Nc2cnccc2-3)c1 [Example 41, N-[2-(3-methylphenyl)ethyl]-9H-dipyrido[2,3-b:4′,3′-f]pyrimido[4,5-d]azepin-2-amine] | < 50 | < 50 | 80 to 100 | < 50 | 50 to 79 | < 50 | 80 to 100 | 
FC(F)(F)c1cccc(CNc2ncc3c(n2)-c2cccnc2Nc2cnccc2-3)c1 [Example 30, N-[3-(trifluoromethyl)benzyl]-9H-dipyrido[2,3-b:4′,3′-f]pyrimido[4,5-d]azepin-2-amine] |  | < 50 | 80 to 100 | < 50 | 80 to 100 | 50 to 79 | 80 to 100 | 
c1cnc2c(c1)-c1nc(NCCCN3CCCC3)ncc1-c1ccncc1N2 [Example 37, N-(3-pyrrolidin-1-ylpropyl)-9H-dipyrido[2,3-b:4′,3′-f]pyrimido[4,5-d]azepin-2-amine] | < 50 | < 50 | 50 to 79 | < 50 |  |  |  | 
Clc1cccc(CNc2ncc3c(n2)-c2cccnc2Nc2ccccc2-3)c1 [Example 61, N-(3-chlorobenzyl)-9H-pyrido[2,3-b]pyrimido[4,5-d][1]benzazepin-2-amine] | < 50 | < 50 |  |  | < 50 | < 50 |  | < 50
Cc1cnc(CNc2ncc3c(n2)-c2cccnc2Nc2cnccc2-3)cn1 [Example 6, N-[(5-methylpyrazin-2-yl)methyl]-9H-dipyrido[2,3-b:4′,3′-f]pyrimido[4,5-d]azepin-2-amine] |  | < 50 | < 50 |  | < 50 |  | < 50 | 
Fc1ccc(CNc2ncc3c(n2)-c2cccnc2Nc2cnccc2-3)cc1Cl [Example 9, N-(3-chloro-4-fluorobenzyl)-9H-dipyrido[2,3-b:4′,3′-f]pyrimido[4,5-d]azepin-2-amine] | < 50 | < 50 | 80 to 100 | < 50 | 50 to 79 | 50 to 79 | 80 to 100 | 
c1ccc(CNc2ncc3c(n2)-c2cccnc2Nc2cnccc2-3)cc1 [Example 12, N-benzyl-9H-dipyrido[2,3-b:4′,3′-f]pyrimido[4,5-d]azepin-2-amine] | < 50 | < 50 | 80 to 100 |  | < 50 | < 50 | 80 to 100 | 
